ChEMBL document CHEMBL4507268 (2021)

Experiments:
[1] = target: T1, Mitogen-activated protein kinase kinase kinase 5 (Homo sapiens) (UniProt Q99683); conditions: Compound concentration 1.0 uM
T1 sequence (whole entry): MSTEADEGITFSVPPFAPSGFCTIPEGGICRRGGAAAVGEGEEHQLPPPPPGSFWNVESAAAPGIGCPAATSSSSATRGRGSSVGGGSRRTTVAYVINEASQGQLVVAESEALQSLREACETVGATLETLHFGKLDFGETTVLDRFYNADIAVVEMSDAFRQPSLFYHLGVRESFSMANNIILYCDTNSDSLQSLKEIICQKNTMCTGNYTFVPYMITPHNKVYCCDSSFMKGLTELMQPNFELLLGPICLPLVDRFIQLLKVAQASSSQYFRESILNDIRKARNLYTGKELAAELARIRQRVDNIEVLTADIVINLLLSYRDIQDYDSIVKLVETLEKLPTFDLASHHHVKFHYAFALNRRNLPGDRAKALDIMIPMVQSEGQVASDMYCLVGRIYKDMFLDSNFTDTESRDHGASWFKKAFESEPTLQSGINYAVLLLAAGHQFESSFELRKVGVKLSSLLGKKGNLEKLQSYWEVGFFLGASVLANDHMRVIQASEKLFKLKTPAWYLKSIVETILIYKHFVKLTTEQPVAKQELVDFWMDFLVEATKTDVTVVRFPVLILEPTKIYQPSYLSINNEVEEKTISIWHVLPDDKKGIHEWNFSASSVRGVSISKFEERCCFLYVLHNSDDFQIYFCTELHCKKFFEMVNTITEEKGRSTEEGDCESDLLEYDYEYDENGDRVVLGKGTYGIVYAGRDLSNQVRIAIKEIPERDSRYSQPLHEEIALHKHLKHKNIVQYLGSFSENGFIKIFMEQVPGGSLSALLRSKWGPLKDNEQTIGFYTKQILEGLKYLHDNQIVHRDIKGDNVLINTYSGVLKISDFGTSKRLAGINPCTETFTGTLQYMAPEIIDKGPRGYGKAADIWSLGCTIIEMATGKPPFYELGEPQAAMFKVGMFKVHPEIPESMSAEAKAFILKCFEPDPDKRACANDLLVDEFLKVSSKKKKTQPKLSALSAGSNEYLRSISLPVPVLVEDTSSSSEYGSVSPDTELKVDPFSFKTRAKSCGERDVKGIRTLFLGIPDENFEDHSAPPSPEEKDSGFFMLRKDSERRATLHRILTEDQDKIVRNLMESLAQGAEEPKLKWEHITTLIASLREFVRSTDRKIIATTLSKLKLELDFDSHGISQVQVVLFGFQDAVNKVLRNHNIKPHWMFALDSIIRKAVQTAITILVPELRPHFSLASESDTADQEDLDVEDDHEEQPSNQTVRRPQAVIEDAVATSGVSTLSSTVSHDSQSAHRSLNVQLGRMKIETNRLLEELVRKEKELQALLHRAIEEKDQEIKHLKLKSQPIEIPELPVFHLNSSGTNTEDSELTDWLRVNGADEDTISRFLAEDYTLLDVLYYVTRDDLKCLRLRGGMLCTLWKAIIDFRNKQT

[2] = target: Sodium-dependent serotonin transporter (Homo sapiens) (UniProt P31645); conditions: Compound concentration 10.0 uM
[3] = target: Phosphatidylinositol 4,5-bisphosphate 3-kinase catalytic subunit gamma isoform (Homo sapiens) (UniProt P48736); conditions: Compound concentration 1.0 uM
[4] = target: MAP kinase-interacting serine/threonine-protein kinase 2 (Homo sapiens) (UniProt Q9HBH9); conditions: Compound concentration 1.0 uM
[5] = target: T2, Mitogen-activated protein kinase kinase kinase 7 (Homo sapiens) (UniProt O43318); conditions: Compound concentration 1.0 uM
T2 sequence (whole entry): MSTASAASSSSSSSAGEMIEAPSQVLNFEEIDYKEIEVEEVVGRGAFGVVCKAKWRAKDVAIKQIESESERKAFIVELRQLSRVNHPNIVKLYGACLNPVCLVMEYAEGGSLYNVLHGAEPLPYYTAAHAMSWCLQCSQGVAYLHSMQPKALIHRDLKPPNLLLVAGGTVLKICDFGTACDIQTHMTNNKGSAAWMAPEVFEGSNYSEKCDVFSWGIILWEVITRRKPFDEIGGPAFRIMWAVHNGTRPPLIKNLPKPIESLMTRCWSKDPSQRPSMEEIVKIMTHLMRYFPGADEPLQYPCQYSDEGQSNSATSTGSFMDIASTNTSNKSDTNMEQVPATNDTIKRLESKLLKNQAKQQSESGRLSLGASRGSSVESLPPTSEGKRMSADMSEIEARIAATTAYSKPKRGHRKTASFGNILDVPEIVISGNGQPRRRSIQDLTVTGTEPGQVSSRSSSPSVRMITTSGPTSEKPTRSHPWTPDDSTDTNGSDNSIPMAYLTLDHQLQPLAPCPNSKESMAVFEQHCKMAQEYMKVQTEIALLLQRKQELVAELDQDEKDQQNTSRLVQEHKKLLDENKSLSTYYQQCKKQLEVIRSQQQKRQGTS

[6] = target: CDK18/Cyclin Y (Homo sapiens) (UniProt Q07002+Q8ND76); conditions: Compound concentration 1.0 uM
[7] = target: Mitogen-activated protein kinase 1 (Homo sapiens) (UniProt P28482); conditions: Compound concentration 1.0 uM
[8] = target: T3, NUAK family SNF1-like kinase 1 (Homo sapiens) (UniProt O60285); conditions: Compound concentration 1.0 uM
T3 sequence (whole entry): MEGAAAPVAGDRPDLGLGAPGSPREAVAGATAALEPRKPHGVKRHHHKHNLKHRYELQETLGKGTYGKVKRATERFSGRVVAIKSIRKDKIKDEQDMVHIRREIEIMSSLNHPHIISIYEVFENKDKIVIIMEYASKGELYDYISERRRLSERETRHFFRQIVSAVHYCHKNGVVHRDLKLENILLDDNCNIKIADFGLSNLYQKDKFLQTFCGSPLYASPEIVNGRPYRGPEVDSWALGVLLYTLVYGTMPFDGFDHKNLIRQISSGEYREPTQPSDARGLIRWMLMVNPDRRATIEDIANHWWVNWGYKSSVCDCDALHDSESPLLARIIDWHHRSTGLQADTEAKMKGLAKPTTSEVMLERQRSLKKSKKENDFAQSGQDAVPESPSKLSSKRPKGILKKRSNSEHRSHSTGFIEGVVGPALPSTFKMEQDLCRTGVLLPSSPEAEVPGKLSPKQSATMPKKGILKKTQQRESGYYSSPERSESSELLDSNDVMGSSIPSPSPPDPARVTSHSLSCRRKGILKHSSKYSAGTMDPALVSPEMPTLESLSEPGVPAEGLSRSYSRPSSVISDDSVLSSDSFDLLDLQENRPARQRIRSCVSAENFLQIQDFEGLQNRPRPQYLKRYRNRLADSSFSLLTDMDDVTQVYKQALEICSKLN

Chain of MAP kinase-interacting serine/threonine-protein kinase 2 (Homo sapiens) (Q9HBH9 whole entry, looked up): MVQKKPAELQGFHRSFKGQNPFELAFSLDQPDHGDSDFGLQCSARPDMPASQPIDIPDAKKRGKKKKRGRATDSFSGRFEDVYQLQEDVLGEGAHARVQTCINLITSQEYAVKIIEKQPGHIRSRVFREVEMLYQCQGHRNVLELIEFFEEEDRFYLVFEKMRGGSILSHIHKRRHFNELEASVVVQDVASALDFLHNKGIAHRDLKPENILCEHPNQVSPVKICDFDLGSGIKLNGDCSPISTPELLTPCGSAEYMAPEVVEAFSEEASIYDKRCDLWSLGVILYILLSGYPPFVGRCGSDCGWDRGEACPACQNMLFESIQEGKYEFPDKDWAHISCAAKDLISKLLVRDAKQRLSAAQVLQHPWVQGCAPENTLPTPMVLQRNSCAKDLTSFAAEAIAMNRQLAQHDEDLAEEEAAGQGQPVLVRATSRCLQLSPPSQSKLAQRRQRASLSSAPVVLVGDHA
Chain of Phosphatidylinositol 4,5-bisphosphate 3-kinase catalytic subunit gamma isoform (Homo sapiens) (P48736 whole entry, looked up, canonical isoform): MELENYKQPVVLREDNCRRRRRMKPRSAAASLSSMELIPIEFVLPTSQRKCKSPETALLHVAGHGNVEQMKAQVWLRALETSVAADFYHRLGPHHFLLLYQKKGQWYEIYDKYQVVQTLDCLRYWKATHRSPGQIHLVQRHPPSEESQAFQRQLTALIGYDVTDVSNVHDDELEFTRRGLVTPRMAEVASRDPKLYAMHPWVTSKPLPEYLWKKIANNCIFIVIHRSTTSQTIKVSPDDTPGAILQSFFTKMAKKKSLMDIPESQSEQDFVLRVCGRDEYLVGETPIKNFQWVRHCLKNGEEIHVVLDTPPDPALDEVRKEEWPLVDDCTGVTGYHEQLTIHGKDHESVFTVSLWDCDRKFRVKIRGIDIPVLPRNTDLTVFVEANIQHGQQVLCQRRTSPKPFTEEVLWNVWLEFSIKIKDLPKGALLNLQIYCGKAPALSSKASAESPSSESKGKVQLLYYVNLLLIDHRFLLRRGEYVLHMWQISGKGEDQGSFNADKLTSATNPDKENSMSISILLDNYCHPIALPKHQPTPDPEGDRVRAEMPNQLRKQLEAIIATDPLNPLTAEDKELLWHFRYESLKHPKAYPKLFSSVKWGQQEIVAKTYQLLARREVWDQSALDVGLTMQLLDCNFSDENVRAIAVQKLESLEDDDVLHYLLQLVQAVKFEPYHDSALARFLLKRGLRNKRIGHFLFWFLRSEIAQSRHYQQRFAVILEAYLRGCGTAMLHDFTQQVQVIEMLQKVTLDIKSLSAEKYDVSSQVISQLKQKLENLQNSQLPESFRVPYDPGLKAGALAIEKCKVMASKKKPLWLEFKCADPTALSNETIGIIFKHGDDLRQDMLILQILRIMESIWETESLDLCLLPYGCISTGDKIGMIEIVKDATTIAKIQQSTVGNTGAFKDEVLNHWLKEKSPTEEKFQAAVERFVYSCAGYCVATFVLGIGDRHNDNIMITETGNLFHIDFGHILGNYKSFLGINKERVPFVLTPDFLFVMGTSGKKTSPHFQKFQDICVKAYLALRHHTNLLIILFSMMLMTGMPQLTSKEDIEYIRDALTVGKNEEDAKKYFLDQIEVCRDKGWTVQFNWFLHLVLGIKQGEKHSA
Chain of Mitogen-activated protein kinase 1 (Homo sapiens) (P28482 whole entry): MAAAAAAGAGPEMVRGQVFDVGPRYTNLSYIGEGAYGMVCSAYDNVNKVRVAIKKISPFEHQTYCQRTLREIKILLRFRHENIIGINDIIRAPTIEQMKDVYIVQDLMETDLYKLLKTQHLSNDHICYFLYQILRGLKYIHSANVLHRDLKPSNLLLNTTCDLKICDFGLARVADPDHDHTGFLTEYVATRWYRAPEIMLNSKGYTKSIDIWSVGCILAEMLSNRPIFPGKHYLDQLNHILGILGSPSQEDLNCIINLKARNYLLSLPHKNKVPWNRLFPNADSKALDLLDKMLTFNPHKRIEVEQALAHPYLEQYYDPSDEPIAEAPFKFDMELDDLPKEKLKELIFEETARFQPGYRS
Chain of Sodium-dependent serotonin transporter (Homo sapiens) (P31645 whole entry, looked up, canonical isoform): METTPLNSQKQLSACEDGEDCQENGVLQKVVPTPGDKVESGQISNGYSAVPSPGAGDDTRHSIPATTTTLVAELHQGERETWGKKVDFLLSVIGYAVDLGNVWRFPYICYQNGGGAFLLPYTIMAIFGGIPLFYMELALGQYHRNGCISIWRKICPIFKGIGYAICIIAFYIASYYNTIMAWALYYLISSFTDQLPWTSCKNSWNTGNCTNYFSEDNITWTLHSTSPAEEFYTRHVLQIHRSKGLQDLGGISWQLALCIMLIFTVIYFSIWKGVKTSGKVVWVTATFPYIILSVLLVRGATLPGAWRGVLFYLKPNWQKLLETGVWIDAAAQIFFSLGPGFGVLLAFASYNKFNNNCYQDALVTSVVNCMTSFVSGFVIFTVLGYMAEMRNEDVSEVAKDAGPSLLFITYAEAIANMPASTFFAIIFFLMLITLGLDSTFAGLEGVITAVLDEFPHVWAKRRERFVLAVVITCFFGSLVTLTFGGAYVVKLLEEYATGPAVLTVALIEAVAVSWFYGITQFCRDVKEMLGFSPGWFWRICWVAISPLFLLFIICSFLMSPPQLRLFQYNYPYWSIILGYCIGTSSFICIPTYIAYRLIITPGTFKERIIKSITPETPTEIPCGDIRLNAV

CN1CCN(c2cnc3c(C4CCN(C(=O)c5ccc(OC(F)(F)F)cc5N)CC4)ncnc3c2)CC1 [BAY-885]
inactive: % residual kinase activity [1] 99% | inhibition [2] 32.4% | % residual kinase activity [3] 100% | % residual kinase activity [4] 99% | % residual kinase activity [5] 107% | % residual kinase activity [6] 100% | % residual kinase activity [7] 116% | % residual kinase activity [8] 101%
